Measurements as given in PubChem BioAssay AID504882 (Broad Institute, 2011).
Records with an inconclusive call do not appear. The source made the active and inactive calls. How the calls were made is not given here.

The molecules below were run on EBV lymphoblastoid cells (LCL) viability, plate reader (assay: LCL viability reduction – cell-based, plate reader, cherry-picks, set 2, cytotoxicity control, dose response (AID 504882)).

Row | SMILES | AC50
1 | Cc1oc2c(c1C(=O)c1ccc(Cl)cc1)C(=O)C(=O)c1ccccc1-2 | 5.51 µM
2 | COc1cc(C=C2CCCC(=Cc3ccc(OCC4CO4)c(OC)c3)C2=O)ccc1OCC1CO1 (configuration not stated) | 5.45 µM
3 | Nc1ccc(C(=O)N/N=C\c2cc(N=Nc3cccc4ccccc34)ccc2O)cc1 | 10.7 µM
4 | COc1ccc(/C=C/c2nc3ccccc3n2C)cc1 | 3.28 µM
5 | CCn1c2ccccc2c2cc(/C=N/n3cnnc3)ccc21 | 10.7 µM
6 | CCCCC(=O)NC(c1ccc(OC)cc1)c1ccc2cccnc2c1O (configuration not stated) | 17.7 µM
7 | O=C(CCc1ccccc1)NC(c1cccs1)c1cc(Cl)c2cccnc2c1O (configuration not stated) | 7.03 µM
8 | CCC(=O)NC(c1cc(Cl)c2cccnc2c1O)C(C)C (configuration not stated) | 6.78 µM
9 | COc1ccc(Cn2c(SCc3cc(C)ccc3C)nc3cc(OC)c(OC)cc3c2=N)cc1 | 6.5 µM
10 | Oc1ccc2ccccc2c1N=Nc1ccccn1 | 4.54 µM
11 | S=C1SCN(Cc2ccco2)CN1Cc1ccco1 | 15.8 µM
12 | COc1ccc(OCc2cccc(C(=O)NN)c2)cc1 | > 19.5 µM (inactive)
